# Legend:
# azoreductase = experiment: Fecal enzyme activity of flora of HFA mice: azoreductase; type: in vivo, human intestinal normal bacterial flora
# Procedure: (§1) For the one week, the feces were picked free from germs with the interval of two to three days. The feces collected at the day of colistin sulfate administration, 2nd, 4th, 7th, 10th, 13th, 17th and 20th days and at 3rd and 5th day after the stop of medication are put in an encapsulated tube and moved to an anaerobic chamber immediately and the activity of glucuomidase, glucosidase, nitrate reductase and azoreductase produced by the human intestinal normal bacterial flora is measured. As a result glucuronidase is decreased throughout the period of administration and the withdrawal period in comparison with control groups and is not recovered even at the 5th day since the medication is stopped. Glucosidase is increased during the medication period in comparison with the control groups. Nitrate reductase is increased in comparison with the control group at the start day of administration and the 2nd day of the medication but is recovered. Azoreductase is increased in comparison with the control group until the 7th day of medication and then decreased.
# glucuronidase = experiment: Fecal enzyme activity of flora of HFA mice: glucuronidase; type: in vivo, human intestinal normal bacterial flora
# Procedure: as §1
# [1] = 5th day since the medication is stopped
substance,measurement,setting,value
colistin sulfate,"Azoreductase activity, recovery",azoreductase; [1],not even recovered
same,Azoreductase activity in comparison with the control group,azoreductase; after the 7th day of medication,decreased
same,Azoreductase activity in comparison with the control group,azoreductase; until the 7th day of medication,increased
same,"Glucuronidase activity, recovery",glucuronidase; [1],not recovered
same,Glucuronidase activity in comparison with control groups,glucuronidase; throughout the period of administration and the withdrawal period,decreased
